The supplement of paper PMC11061612

Columns and labels:
[1] = test system: NCI-H1666 (Lung Adenocarcinoma); assay: combination Emax (second highest fraction inhibited in the dose matrix, 72 h); higher = more inhibition; extreme values may be limits of the assay
Summary of the method: (§1)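 Bliss excess equals the observed combination effect minus the expected value EA + EB − EA·EB, where EA and EB are the effects of each agent alone. Combination Emax is the second-highest inhibition within the matrix. Inhibition was scaled from CellTiter-Glo 2.0 luminescence, with 0 set by vehicle wells and 1 by blank wells, after 72 hours of two-drug dosing of cells plated in 1536-well plates.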

[2] = test system: HCC1954 (Breast Carcinoma); assay: as above
Summary of the method: as §1

FU97 (Gastric Carcinoma) = assay: as above
Summary of the method: as §1

[3] = test system: TT2609-C02 (Thyroid Gland Carcinoma); assay: Bliss excess, mean over the matrix (fraction); higher = more synergy
Summary of the method: as §1

8-MG-BA (Glioblastoma) = assay: as above
Summary of the method: as §1

PA-1 (Ovarian Carcinoma) = assay: as above
Summary of the method: as §1

[4] = test system: COLO-320-HSR (Colorectal Carcinoma); assay: as above
Summary of the method: as §1

NY (Osteosarcoma) = assay: as above
Summary of the method: as §1

IGR-37 (Melanoma) = assay: as above
Summary of the method: as §1

[5] = test system: VCaP (Prostate Carcinoma); assay: as above
Summary of the method: as §1

[6] = test system: NCI-H1693 (Lung Adenocarcinoma); assay: as above
Summary of the method: as §1

[7] = test system: OS-RC-2 (Kidney Carcinoma); assay: as above
Summary of the method: as §1

[8] = test system: ECC10 (Gastric Carcinoma); assay: as above
Summary of the method: as §1

[9] = test system: HCC1954 (Breast Carcinoma); assay: as above
Summary of the method: as §1

[10] = test system: A549 (Lung Adenocarcinoma); assay: as above
Summary of the method: as §1

[11] = test system: NCI-H2141 (Small Cell Lung Carcinoma); assay: as above
Summary of the method: as §1

[12] = test system: MDST8 (Colorectal Carcinoma); assay: as above
Summary of the method: as §1

[13] = test system: NCI-H64 (Small Cell Lung Carcinoma); assay: as above
Summary of the method: as §1

LN-405 (Glioblastoma) = assay: as above
Summary of the method: as §1

[14] = test system: PANC-10-05 (Pancreatic Carcinoma); assay: as above
Summary of the method: as §1

Row | SMILES | combination Emax [1] | combination Emax [2] | combination Emax (FU97 (Gastric Carcinoma)) | Bliss excess [3] | Bliss excess (8-MG-BA (Glioblastoma)) | Bliss excess (PA-1 (Ovarian Carcinoma)) | Bliss excess [4] | Bliss excess (NY (Osteosarcoma)) | Bliss excess (IGR-37 (Melanoma)) | Bliss excess [5] | Bliss excess [6] | Bliss excess [7] | Bliss excess [8] | Bliss excess [9] | Bliss excess [10] | Bliss excess [11] | Bliss excess [12] | Bliss excess [13] | Bliss excess (LN-405 (Glioblastoma)) | Bliss excess [14]
1 | CN(CCO)CC[C@H](CSc1ccccc1)Nc1ccc(S(=O)(=O)NC(=O)c2ccc(N3CCC([C@@H](O)c4ccccc4-c4ccc(Cl)cc4)CC3)cc2)cc1S(=O)(=O)C(F)(F)F [AZD4320] + Cc1cc2ncnn2cc1Nc1ncc2c(n1)n(C1CCOCC1)c(=O)n2C [AZD7648] (first compound max 1 µM, 7x7, partner max 10 µM) | 0.197 | 0.48 | 0.32 | -0.0367 | -0.0188 | 0.0302 | -0.0099 | -0.018 | -0.0132 | -0.0185 | -0.0639 | -0.0524 | 0.025 | 0.028 | -0.0263 | 0.0109 | -0.0283 | -0.0449 | 0.0012 | -0.0652
2 | Cc1cc2ncnn2cc1Nc1ncc2c(n1)n(C1CCOCC1)c(=O)n2C [AZD7648] + O=C(c1cc(Cc2n[nH]c(=O)c3ccccc23)ccc1F)N1CCN(C(=O)C2CC2)CC1 [Olaparib] (first compound max 10 µM, 7x7, partner max 10 µM) | 0.0994 | 0.161 | 0.291 | -0.0276 | -0.0184 | -0.0072 | -0.0169 | -0.0311 | -0.057 | -0.0336 | -0.0299 | -0.0486 | -0.0305 | -0.045 | 0.0613 | -0.0603 | -0.043 | -0.0384 | -0.0421 | -0.0426
3 | Cn1cnc2c(F)c(Nc3ccc(Br)cc3Cl)c(C(=O)NOCCO)cc21 [Selumetinib] + CCN(CCO)CCCOc1ccc2c(Nc3cc(CC(=O)Nc4cccc(F)c4)[nH]n3)ncnc2c1 [AZD2811] (first compound max 10 µM, 7x7, partner max 1 µM) | 0.506 | 0.29 | 0.305 | 0.0055 | -0.0181 | -0.0998 | -0.0398 | -0.0102 | -0.0274 | -0.0336 | -0.0196 | -0.0252 | -0.094 | -0.0098 | 0.0248 | -0.0196 | -0.0214 | 0.0312 | -0.0367 | -0.0367
4 | COc1cc2ncnc(Nc3ccc(F)c(Cl)c3)c2cc1OCCCN1CCOCC1 [Gefitinib] + CC(C)n1c(=O)n(C)c2cnc3cc(F)c(-c4ccc(OCCCN5CCCCC5)nc4)cc3c21 [AZD1390] (first compound max 10 µM, 7x7, partner max 0.3 µM) | 0.484 | 0.267 | 0.149 | -0.0716 | -0.0604 | -0.0949 | -0.0398 | -0.0355 | -0.0865 | -0.0429 | -0.04 | -0.0817 | -0.0231 | -0.0366 | -0.0544 | -0.0464 | -0.0584 | -0.022 | -0.076 | -0.0835
5 | Cc1nc(Nc2ncc(C(=O)Nc3c(C)cccc3Cl)s2)cc(N2CCN(CCO)CC2)n1 [Dasatinib] + CC(=O)Nc1cccc(-n2c(=O)n(C3CC3)c(=O)c3c(Nc4ccc(I)cc4F)n(C)c(=O)c(C)c32)c1 [Trametinib] (first compound max 2 µM, 7x7, partner max 1 µM) | 0.651 | 0.279 | 0.422 | 0.0898 | 0.0219 | 0.013 | -0.0492 | 0.034 | -0.121 | -0.0396 | 0.0432 | -0.0396 | -0.0334 | 0.0318 | 0.0224 | -0.0362 | -0.106 | -0.0498 | -0.0347 | 0.0735
6 | C=CCn1c(=O)c2cnc(Nc3ccc(N4CCN(C)CC4)cc3)nc2n1-c1cccc(C(C)(C)O)n1 [AZD1775] + C1CN(CCC1(C(=O)N[C@@H](CCO)C2=CC=C(C=C2)Cl)N)C3=NC=NC4=C3C=CN4 [Capivasertib] (first compound max 3 µM, partner max 3 µM) | 0.55 | 0.914 | 0.471 | 0.0087 | 0.0277 | -0.0229 | -0.0314 | -0.0746 | -0.0316 | -0.061 | -0.0389 | -0.085 | -0.0156 | 0.002 | 0.015 | -0.0268 | -0.0769 | 0.0202 | -0.0436 | -0.102
7 | CCN(CCO)CCCOc1ccc2c(Nc3cc(CC(=O)Nc4cccc(F)c4)[nH]n3)ncnc2c1 [AZD2811] + C=CCn1c(=O)c2cnc(Nc3ccc(N4CCN(C)CC4)cc3)nc2n1-c1cccc(C(C)(C)O)n1 [AZD1775] (first compound max 1 µM, partner max 1 µM) | 0.327 | 0.161 | 0.219 | -0.0295 | 0.0299 | 0.0565 | -0.0465 | -0.0363 | -0.023 | -0.0369 | 0.0099 | -0.0231 | -0.0021 | -0.0269 | 0.015 | -0.0082 | 0.064 | -0.0413 | -0.0312 | -0.021
8 | Cc1cc2ncnn2cc1Nc1ncc2c(n1)n(C1CCOCC1)c(=O)n2C [AZD7648] + CCN(CCO)CCCOc1ccc2c(Nc3cc(CC(=O)Nc4cccc(F)c4)[nH]n3)ncnc2c1 [AZD2811] (first compound max 10 µM, 7x7, partner max 1 µM) | 0.381 | 0.342 | 0.337 | 0.0149 | 0.0664 | 0.0239 | 0.0372 | 0.0076 | 0.0315 | 0.0023 | -0.0059 | 0.0201 | -0.047 | 0.0561 | -0.0025 | 0.0625 | 0.0619 | 0.0392 | -0.0206 | -0.0341
9 | CC1(C)CCC(CN2CCN(c3ccc(C(=O)NS(=O)(=O)c4ccc(NCC5CCOCC5)c([N+](=O)[O-])c4)c(Oc4cnc5[nH]ccc5c4)c3)CC2)=C(c2ccc(Cl)cc2)C1 [Venetoclax] + CCN(CCO)CCCOc1ccc2c(Nc3cc(CC(=O)Nc4cccc(F)c4)[nH]n3)ncnc2c1 [AZD2811] (first compound max 1 µM, 7x7, partner max 1 µM) | 0.265 | 0.293 | 0.413 | -0.0276 | 0.0065 | 0.0002 | 0.0052 | -0.0304 | -0.011 | 0.0436 | 0.0169 | -0.0484 | 0.0068 | 0.0579 | -0.0668 | 0.0609 | -0.0011 | 0.173 | 0.0185 | -0.0454
10 | CC(=O)c1c(C)c2cnc(Nc3ccc(N4CCNCC4)cn3)nc2n(C2CCCC2)c1=O [Palbociclib] + CC1(C)CCC(CN2CCN(c3ccc(C(=O)NS(=O)(=O)c4ccc(NCC5CCOCC5)c([N+](=O)[O-])c4)c(Oc4cnc5[nH]ccc5c4)c3)CC2)=C(c2ccc(Cl)cc2)C1 [Venetoclax] (first compound max 10 µM, 7x7, partner max 1 µM) | 0.177 | 0 | 0.161 | 0.0069 | 0.0049 | 0.0133 | -0.0625 | -0.0479 | -0.0528 | -0.0076 | 0.0079 | -0.0385 | 0.0269 | -0.0424 | -0.0056 | -0.0298 | -0.0059 | -0.0185 | -0.0391 | -0.107
11 | CN(C)CCCOc1ccc(-c2ccc3ncc4c(c3c2)n(C2CCOCC2)c(=O)n4C)cn1 [AZD0156] + C=CCn1c(=O)c2cnc(Nc3ccc(N4CCN(C)CC4)cc3)nc2n1-c1cccc(C(C)(C)O)n1 [AZD1775] (first compound max 1 µM, partner max 1 µM) | 0.314 | 0.181 | 0.367 | -0.0119 | -0.0587 | -0.0546 | -0.0454 | -0.0212 | -0.0159 | -0.0751 | -0.0242 | -0.0652 | -0.0379 | -0.034 | -0.0807 | -0.0944 | -0.0358 | -0.0931 | -0.0478 | -0.0519
12 | COc1nnc2ccc(N3CCC(c4ccc(OCCN5CCN(C)C(=O)[C@H]5C)cc4)CC3)nn12 [AZD5153] + C=CCn1c(=O)c2cnc(Nc3ccc(N4CCN(C)CC4)cc3)nc2n1-c1cccc(C(C)(C)O)n1 [AZD1775] (first compound max 1 µM, partner max 1 µM) | 0.413 | 0.306 | 0.792 | -0.0508 | -0.0571 | -0.043 | -0.0801 | 0.0119 | -0.0569 | -0.0756 | -0.0888 | -0.0324 | -0.0116 | -0.0383 | -0.0902 | -0.021 | -0.0455 | -0.0114 | -0.042 | -0.132
13 | COc1cccc(OCCCN)c1-c1cc(Nc2cnc(C#N)cn2)n[nH]1 [Prexasertib] + CCc1c2c(nc3ccc(O)cc13)-c1cc3c(c(=O)n1C2)COC(=O)[C@]3(O)CC [SN-38] (first compound max 1 µM, 7x7, partner max 0.3 µM) | 0.643 | 0.929 | 0.423 | -0.0467 | -0.0166 | -0.0364 | 0.115 | -0.0647 | -0.0727 | -0.0541 | 0.0166 | -0.0392 | 0.0145 | 0.123 | -0.0361 | 0.0455 | -0.1 | 0.0021 | 0.0786 | -0.0372
14 | C=CCn1c(=O)c2cnc(Nc3ccc(N4CCN(C)CC4)cc3)nc2n1-c1cccc(C(C)(C)O)n1 [AZD1775] + O=C(c1cc(Cc2n[nH]c(=O)c3ccccc23)ccc1F)N1CCN(C(=O)C2CC2)CC1 [Olaparib] (first compound max 1 µM, partner max 10 µM) | 0.335 | 0.218 | 0.281 | -0.0311 | -0.0163 | -0.0037 | -0.0404 | -0.0731 | -0.0132 | -0.0494 | -0.0137 | -0.0981 | -0.019 | -0.0208 | -0.0667 | -0.0638 | -0.0308 | -0.0547 | -0.0583 | -0.0871
